Patent US20250387504A1, “ANTIBODY-DRUG CONJUGATES OF ANTINEOPLASTIC COMPOUNDS AND METHODS OF USE THEREOF” (Novartis AG, priority 2022, published 2025)

B1: Datopotamab-P5-L12-P7 (antibody, INN chains, looked up, V domains shown)
VH: QVQLVQSGAEVKKPGASVKVSCKASGYTFTTAGMQWVRQAPGQGLEWMGWINTHSGVPKYAEDFKGRVTISADTSTSTAYLQLSSLKSEDTAVYYCARSGFGSSYWYFDVWGQGTLVTVSS
VL: DIQMTQSPSSLSASVGDRVTITCKASQDVSTAVAWYQQKPGKAPKLLIYSASYRYTGVPSRFSGSGSGTDFTLTISSLQPEDFAVYYCQQHYITPLTFGQGTKLEIK
modifications: BCLxLi/TOPOi dual drug-linker P5-L12-P7
B2: Datopotamab-mono-L3-P8 (antibody, INN chains, looked up, V domains shown)
VH: B1 VH
VL: B1 VL
modifications: TOPOi mono-loaded drug-linker L3-P8
B3: Disitamab-P5-L12-P7 (antibody, INN chains, looked up, V domains shown)
VH: EVQLVQSGAEVKKPGATVKISCKVSGYTFTDYYIHWVQQAPGKGLEWMGRVNPDHGDSYYNQKFKDKATITADKSTDTAYMELSSLRSEDTAVYFCARNYLFDHWGQGTLVTVSS
VL: DIQMTQSPSSVSASVGDRVTITCKASQDVGTAVAWYQQKPGKAPKLLIYWASIRHTGVPSRFSGSGSGTDFTLTISSLQPEDFATYYCHQFATYTFGGGTKVEIK
modifications: BCLxLi/TOPOi dual payload P5-L12-P7

Columns and labels:
[1] = system: allogeneic T- and B-cell responses; details: after skin transplantation; cited from earlier work
[2] = system: animal models of arthritis and lupus; details: mice; cited from earlier work
[3] = system: lymphocyte proliferation; details: in vitro; cited from earlier work
[4] = system: allogeneic T-cell; details: in vitro; cited from earlier work
[5] = system: KE-97; test: CellTiter-Glo proliferation assay, CD48 MCL-1 and BCL-2 ADCs (Example 4); details: KE-97, 120 h, read-out: Ke97 IC50 (nM)
Experimental: (§3) The ability of the MCL-1 and BCL-2 antibody drug conjugates to inhibit cell proliferation and survival was assessed using the Promega CellTiter-Glo® proliferation assay.
(§4) Cell lines were cultured in media that is optimal for their growth at 5% CO2, 37° C. in a tissue culture incubator. Prior to seeding for the proliferation assay, the cells were split at least 2 days before the assay to ensure optimal growth density. On the day of seeding, cell viability and cell density were determined using a cell counter (Vi-Cell XR Cell Viability Analyzer, Beckman Coulter). […] Cells were seeded at a density of 1,000 cells per well in 45 μL of standard growth media. Plates were incubated at 5% CO2, 37° C. overnight in a tissue culture incubator. The next day, free MCL-1 and BCL-2 payloads, targeting MCL-1 and BCL-2 ADCs, and non-targeting isotype ADCs free MCL-1 and BCL-2 payloads, were prepared at 10× in standard growth media. […] Each drug concentration was tested in quadruplets. Plates were incubated at 5% CO2, 37° C. for 5 days in a tissue culture incubator, after which cell viability was assessed through the addition of 25 L μof CellTiter Glo® (Promega, cat #G7573), a reagent which lyses cells and measures total adenosine triphosphate (ATP) content. Plates were incubated at room temperature for 10 minutes to stabilize luminescent signals prior to reading using a luminescence reader (EnVision Multilabel Plate Reader, PerkinElmer). To evaluate the effect of the drug treatments, luminescent counts from wells containing untreated cells (100% viability) were used to normalize treated samples. […] IC50 and Amax values were extrapolated from the resultant curves.

[6] = system: AMO-1; test: as above; details: Homo sapiens, AMO1, 120 h, read-out: AMO-1 IC50 (nM)
Experimental: as §3, §4

[7] = system: KMS-21-BM; test: as above; details: 120 h, read-out: KMS-21-BM IC50 (nM)
Experimental: as §3, §4

[8] = system: KHM-1B; test: as above; details: 120 h, read-out: KHM-1B IC50 (nM)
Experimental: as §3, §4

[9] = system: WSU-DLCL2; test: as above; details: Homo sapiens, WSUDLCL2, 120 h, read-out: WSU-DLCL2 IC50 (nM)
Experimental: as §3, §4

[10] = system: RL; test: as above; details: Homo sapiens, 120 h, read-out: RL IC50 (nM)
Experimental: as §3, §4

[11] = system: MOLP-8; test: as above; details: Homo sapiens, MOLP-8, 120 h, read-out: MOLP-8 IC50 (nM)
Experimental: as §3, §4

[12] = system: NCI-H929; test: as above; details: Homo sapiens, NCI-H929, 120 h, read-out: NCI-H929 IC50 (nM)
Experimental: as §3, §4

[13] = system: KMS-27; test: as above; details: KMS-27, 120 h, read-out: KMS-27 IC50 (nM)
Experimental: as §3, §4

[14] = system: Kasumi-6; test: CellTiter-Glo proliferation assay, CD74 MCL-1/BCL-xL and BCL-xL ADCs (Example 6); format: cell-based; details: Table 4 CD74 ADC, 5 days; for IC50: 120 h, 0.01-600 nM
Experimental: (§1) The CD74 MCL-li and BCL-xLi antibody drug conjugates and the CD74 BCL-xL antibody drug conjugates were tested against two endogenous cancer cell lines. • Kasumi-6: ATCC No. CRL-2775 cultured in RPMI 1640 medium with 2 mM L-glutamine adjusted to contain 1.5 g/L sodium bicarbonate, 4.5 g/L glucose, 10 mMv HEPES, and 1.0 mM sodium pyruvate supplemented with 2 ng/ml human recombinant granulocyte macrophage colony stimulating factor (GM-CSF) and 20% FBS • EOL-1: DSMZ No. ACC-386 cultured in RPMI-1640+10% FBS
(§2) The next day, free MCL-1 payload (P1), free BCL-xL payload (P5 and P6) and targeting MCL-1 and BCL-xL ADCs and targeting BCL-xL ADCs were prepared at 10X in standard growth media. […] Each drug concentration was tested in quadruplets.

[15] = system: EOL-1; test: as above; format: cell-based; details: Table 4 CD74 ADC, 5 days; for IC50: Homo sapiens, EOL1, 120 h, 0.01-600 nM
Experimental: as §1, §2

[16] = system: KMS-27; test: CellTiter-Glo proliferation assay, CD48 MCL-1/BCL-xL and BCL-xL ADCs (Example 6); format: cell-based; details: Table 3 CD48 ADC, 5 days; for IC50: KMS-27, 120 h, 0.01-600 nM
Experimental: as §2

[17] = system: hematological malignancies and solid tumors; details: several hematological malignancies and solid tumors; cited from earlier work
[18] = system: lymphoid malignancies; details: cited from earlier work
[19] = system: T-ALL (T-cell Acute Lymphoblastic Leukemia) and different types of solid tumors; details: cited from earlier work
[20] = system: EOL-1; test: CellTiter-Glo proliferation assay, CD74 Milatuzumab MCL-1i and BCL2i ADCs (Example 5); format: cell-based; details: EOL-1, 5 days, 0.008-150 nM
Experimental: The CD74 Milatuzumab […] […] The next day, free MCL-1 payload (P1) and targeting MCL-1 and BCL-2 ADCs were prepared at 10X in standard growth media. […] Each drug concentration was tested in quadruplets.

[21] = system: cancer cell lines expressing CD48, CD74, EphA2, Her2 and PCAD; test: CellTiter-Glo proliferation assay, summary over the Example 6 cell lines; format: cell-based; details: representative CD48 and CD74 cancer cell lines; read-out: IC50 values range
Experimental: as §1
The EphA2 antibody drug conjugates were tested against one endogenous cancer cell line. • HCC-38: ATCC No. CRL-2314 cultured in RPMI-1640+10% FBS
as §2

[22] = system: AMO-1; test: CellTiter-Glo proliferation assay, CD48 MCL-1/BCL-xL and BCL-xL ADCs (Example 6); format: cell-based; details: Table 3 CD48 ADC, 5 days
Experimental: as §2

[23] = molecular target: TROP2 (human) (UniProt P09758); test: cell-based or functional assay
Sequence of TROP2 (human) (P09758 27-323): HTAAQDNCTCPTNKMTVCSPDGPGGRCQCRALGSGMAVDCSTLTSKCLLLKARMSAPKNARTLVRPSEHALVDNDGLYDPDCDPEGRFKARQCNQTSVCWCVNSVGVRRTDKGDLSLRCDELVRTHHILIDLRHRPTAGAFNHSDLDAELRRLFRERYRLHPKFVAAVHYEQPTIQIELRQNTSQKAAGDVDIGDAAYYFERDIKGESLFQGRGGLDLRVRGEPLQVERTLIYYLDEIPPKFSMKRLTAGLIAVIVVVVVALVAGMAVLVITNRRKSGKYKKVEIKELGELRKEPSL

[24] = molecular target: HER2 (UniProt P04626); test: cell-based or functional assay

Row | Molecule | IC50 [5] | IC50 [6] | IC50 [7] | IC50 [8] | IC50 [9] | IC50 [10] | IC50 [11] | IC50 [12] | IC50 [13] | also measured
1 | CN(C)CC[C@H](CSc1ccccc1)Nc1ccc(S(=O)(=O)NC(=O)c2ccc(N3CCN(Cc4ccccc4-c4ccc(Cl)cc4)CC3)cc2)cc1[N+](=O)[O-] [ABT-737] | – | – | – | – | – | – | – | – | – | allogeneic T- and B-cell responses [1]: inhibited; disease severity [2]: significant decrease in disease severity; inhibition of lymphocyte proliferation [3]: potent inhibition; allogeneic T-cell activation, proliferation, and cytotoxicity [4]: prevented
2 | Cc1c(N(C(=O)c2cc(-c3cc(Cl)ccc3C(=O)N3Cc4ccccc4C[C@H]3CCCN(C)C)n(C)c2C)c2ccc(O)cc2)cc(C#N)n1C [P2, 5-[5-chloro-2-[(3R)-3-[3-(dimethylamino)propyl]-3,4-dihydro-1H-isoquinoline-2-carbonyl]phenyl]-N-(5-cyano-1,2-dimethyl-pyrrol-3-yl)-N-(4-hydroxyphenyl)-1,2-dimethyl-pyrrole-3-carboxamide] | > 250 nM | > 250 nM | > 100 nM | > 10 nM | 3.77 nM | 6.26 nM | > 250 nM | > 250 nM | 0.316 nM | –
3 | Cc1c(Nc2nc3ccccc3s2)nnc2c1CCCN2c1ccc(-c2cnn(CC34CC5(C)CC(C)(C3)CC(OCCNCCCO)(C5)C4)c2C)c(C(=O)O)n1 [P5, 6-[3-(1,3-benzothiazol-2-ylamino)-4-methyl-6,7-dihydro-5H-pyrido[2,3-c]pyridazin-8-yl]-3-[1-[[3-[2-(3-hydroxypropylamino)ethoxy]-5,7-dimethyl-1-adamantyl]methyl]-5-methyl-pyrazol-4-yl]pyridine-2-carboxylic acid] | – | – | – | – | – | – | – | – | – | IC50 [14]: 11.9 nM; Kasumi-6 Amax (Span) [14]: 84.5; IC50 [15]: 0.488 nM; EOL-1 Amax (Span) [15]: 94.9; IC50 [16]: < 5 nM
4 | Cc1c(N(C(=O)c2cc(-c3cc4c(cc3C(=O)N3Cc5ccccc5C[C@H]3C)CN(C(=O)Cc3ccc(OCCN5CCOCC5)cc3)CC4)n(C)c2C)c2ccc(O)cc2)cc(C#N)n1C [P4, N-(5-cyano-1,2-dimethyl-1H-pyrrol-3-yl)-N-(4-hydroxyphenyl)-1,2-dimethyl-5-{7-[(3R)-3-methyl-1,2,3,4-tetrahydroisoquinoline-2-carbonyl]-2-(2-{4-[2-(morpholin-4-yl)ethoxy]phenyl}acetyl)-1,2,3,4-tetrahydroisoquinolin-6-yl}-1H-pyrrole-3-carboxamide] | > 250 nM | > 250 nM | > 100 nM | > 10 nM | 4.17 nM | 1.26 nM | > 250 nM | > 250 nM | 0.999 nM | –
5 | CC1(C)CCC(c2ccc(Cl)cc2)=C(CN2CCN(c3ccc(C(=O)NS(=O)(=O)c4ccc(N[C@H](CCN5CCOCC5)CSc5ccccc5)c(S(=O)(=O)C(F)(F)F)c4)cc3)CC2)C1 [ABT-263, navitoclax] | – | – | – | – | – | – | – | – | – | activity in pre-clinical models [17]: shown activity; antitumor activity in clinical studies [18]: objective antitumor activity
6 | Cc1c(C(=O)N(c2ccc(O)cc2)c2cnn(C(F)F)c2)cc(-c2cc3c(cc2C(=O)N2Cc4ccccc4C[C@H]2C)CN(C(=O)Cc2ccc(OCCN4CCOCC4)cc2)CC3)n1C [P3] | > 250 nM | > 250 nM | > 100 nM | > 10 nM | 5.41 nM | 11.8 nM | > 250 nM | > 250 nM | 3.91 nM | –
7 | CN(C)CC#Cc1ccc(OCCCc2sc(N3CCc4cccc(C(=O)Nc5nc6ccccc6s5)c4C3)nc2C(=O)O)c(F)c1 [A-1155463] | – | – | – | – | – | – | – | – | – | in vivo activity in pre-clinical models [19]: in vivo activity
8 | Cc1c(-c2ccc(N3CCc4cccc(C(=O)Nc5nc6ccccc6s5)c4C3)nc2C(=O)O)cnn1CC12CC3CC(CC(C3)C1)C2 [A-1331852] | – | – | – | – | – | – | – | – | – | in vivo activity in pre-clinical models [19]: in vivo activity
9 | Cc1c(Nc2nc3ccccc3s2)nnc2c1CCCN2c1nc(C(=O)O)c(CCCOc2ccc(C#CCN(C)C)cc2F)s1 [P6, 2-[3-(1,3-Benzothiazol-2-ylamino)-4-methyl-6,7-dihydro-SH-pyrido[2,3-c]pyridazin-8-yl]-5-[3-[4-[3-(dimethylamino)prop-1-ynyl]-2-fluoro-phenoxy]propyl]thiazole-4-carboxylic acid] | – | – | – | – | – | – | – | – | – | IC50 [14]: < 10 nM; IC50 [15]: < 10 nM; IC50 [16]: 7.89 nM; KMS-27 Amax (Span) [16]: 93.7
10 | COc1ccccc1-c1nccc(COc2ccccc2C[C@@H](Oc2ncnc3sc(-c4ccc(F)cc4)c(-c4ccc(OCCN5CCN(C)CC5)c(Cl)c4C)c23)C(=O)O)n1 [P1] | > 250 nM | 4.7 nM | 1.66 nM | 1.62 nM | 41.1 nM | > 250 nM | 6.17 nM | 5.17 nM | 13.3 nM | Amax (Span) [20]: 88.6; IC50 ([20]; Homo sapiens, EOL1, 120 h): 0.338 nM; IC50 [21]: 0.685 to 36 nM; IC50 [14]: 36 nM; Kasumi-6 Amax (Span) [14]: 111.4; IC50 [15]: 0.685 nM; EOL-1 Amax (Span) [15]: 98.4; IC50 [16]: 5.23 nM; KMS-27 Amax (Span) [16]: 96.7; IC50 ([22]; Homo sapiens, AMO1, 120 h, 0.01-600 nM): 3.8 nM; AMO-1 Amax (Span) [22]: 95.8
11 | B1 | – | – | – | – | – | – | – | – | – | IC50 (nM), NCI-H441 [23]: 0.692 nM
12 | B2 | – | – | – | – | – | – | – | – | – | IC50 (nM), NCI-H441 [23]: < 5 nM
13 | B3 | – | – | – | – | – | – | – | – | – | IC50 (nM), inhibition of cell proliferation and survival (CellTiter-Glo), UACC-812 cells [24]: 0.191 nM
